# Reference: patent US20210032139A1, “REGULATING A MICROENVIRONMENT OF ANAEROBIC GRANULAR SLUDGE TO PROMOTE ANAEROBIC DIGESTION AND DELAY CALCIFICATION” (GuangXi University, priority 2019, published 2021)
# What was measured:
# [1] = test system: anaerobic granular sludge; assay: Laboratory anaerobic serum bottle reactor treating papermaking wastewater with daily C8-HSL addition; settings: after three months; for Methanobactium, Methanosaeta and Methanosarcina in the microbial community: sequencing analysis
# Protocol: First, 50 mL of anaerobic granular sludge and 200 mL of papermaking wastewater collected from a paper mill were placed in a 250 mL anaerobic serum bottle. The bioreactor used in this example involves a 24-hour operation cycle, which has a reaction stage (23.5 h) and a sludge settling stage (0.5 h).
# Next, 50 mL of supernatant is removed from the top of the anaerobic serum bottle, and the same volume of fresh papermaking wastewater with N-octyl […] (C8-HSL) is injected into the bottle through a long syringe at the end of the cycle. The injected wastewater is then domesticated for about a week.
# 2 μg C8-HSL standards are added to the reactor every day after domestication.
# The reactor is treated in a constant temperature magnetic stirring water bath at 38° C.
# Water samples are collected at the beginning and end of each cycle from the reactor, and sludge samples are also collected at the end of each cycle from the reactor. After a total of three months of operation, sludge biomass is collected by centrifugation at 5000×g for 10 minutes and then frozen for further sequencing analysis. […]
# [2] = test system: anaerobic granular sludge; assay: Paper mill anaerobic reactor (1500 m^3) with C8-HSL added to papermaking wastewater at the regulating tank outlet
# Protocol: In an anaerobic reactor of a paper mill, the reactor is 8 m high and its working volume is 1500 m^3. The papermaking wastewater with high calcium content enters into a regulating tank. The regulating tank has a volume of 1000 m^3. When it is detected that the proportion of microorganism content in the anaerobic granular sludge in the anaerobic reactor is less than 0.6, C8-HSL standard of AHLs type signal molecule is added to the paper-making wastewater at the outlet of the regulating tank end, the quantity of C8-HSL standard is 50 mg per cubic meter of papermaking wastewater. The time interval of signal molecule input is controlled by time controller. The regulating pool is equipped with liquid level transmitter to detect the liquid level to prevent the reactor feed pump from idling. The wastewater that is modulated in the regulating tank is injected into the anaerobic reactor through the wastewater feed pump and treated according to the conventional anaerobic way. In the treatment process, water samples are collected once a month, and sludge samples are collected once half a year. Sludge biomass is collected by centrifugation at 5000×g for 10 minutes, and then frozen for further sequencing analysis.
# [3] = 2 μg C8-HSL added every day, 38° C.
# [4] = 20 μg C8-HSL added every day, 38° C.
# [5] = 30 μg C8-HSL added every day (150 mg/m^3)
# [6] = 30 μg C8-HSL added every day (150 mg/m^3), 38° C.
# [7] = 50 mg C8-HSL per cubic meter of papermaking wastewater, paper mill, after five years
structure (smiles),measurement,setting,value
"CCCCCCCC(=O)N[C@H]1CCOC1=O [C8-HSL, N-octyl hypererine lactone]",increase of activity of coenzyme F420 compared with the reactor without exogenous signal molecules,[1]; 2 μg C8-HSL added every day,33.5%
same,increase of removal rate of COD compared with the reactor without exogenous signal molecules,[1]; 2 μg C8-HSL added every day,10.8%
same,increase of specific methanogenic activity (SMA) compared with the reactor without exogenous signal molecules,[1]; 2 μg C8-HSL added every day,32.4%
same,chemical oxygen demand (COD) removal rate,[1]; [3],75%
same,content of coenzyme F420,[1]; [3],0.18 μmol/gVSS
same,specific methanogenic activity (SMA),[1]; [3],25 mL/(gVSS·h)
same,"Methanobactium, Methanosaeta and Methanosarcina in the microbial community",[1]; 2 μg C8-HSL added every day,enhanced
same,increase of activity of coenzyme F420 compared with the reactor without exogenous signal molecules,[1]; 20 μg C8-HSL added every day,48.1%
same,increase of removal rate of COD compared with the reactor without exogenous signal molecules,[1]; 20 μg C8-HSL added every day,18.2%
same,increase of specific methanogenic activity (SMA) compared with the reactor without exogenous signal molecules,[1]; 20 μg C8-HSL added every day,43%
same,COD removal rate,[1]; [4],80%
same,content of coenzyme F420,[1]; [4],0.20 μmol/gVSS
same,specific methanogenic activity (SMA),[1]; [4],27 mL/(gVSS·h)
same,"Methanobactium, Methanosaeta and Methanosarcina in the microbial community",[1]; 20 μg C8-HSL added every day,enhanced
same,increase of activity of coenzyme F420 compared with the reactor of adding 100 mg signal molecule per cubic meter of papermaking wastewater,[1]; [5],1.5%
same,increase of activity of coenzyme F420 compared with the reactor without exogenous signal molecules,[1]; [5],50.38%
same,increase of removal rate of COD compared with the reactor of adding 100 mg signal molecule per cubic meter of papermaking wastewater,[1]; [5],0.375%
same,increase of removal rate of COD compared with the reactor without exogenous signal molecules,[1]; [5],18.63%
same,increase of specific methanogenic activity (SMA) compared with the reactor of adding 100 mg signal molecule per cubic meter of papermaking wastewater,[1]; [5],1.85%
same,increase of specific methanogenic activity (SMA) compared with the reactor without exogenous signal molecules,[1]; [5],45.66%
same,COD removal rate,[1]; [6],80.3%
same,content of coenzyme F420,[1]; [6],0.203 μmol/gVSS
same,specific methanogenic activity (SMA),[1]; [6],27.5 mL/(gVSS·h)
same,"Methanobactium, Methanosaeta and Methanosarcina in the microbial community",[1]; [5],enhanced
same,COD removal rate,[2]; [7],75%
same,content of coenzyme F420,[2]; [7],0.19 μmol/gVSS
same,specific methanogenic activity (SMA),[2]; [7],24 mL/(gVSS·h)
same,calcification of the sludge,"[2]; 50 mg C8-HSL per cubic meter of papermaking wastewater, paper mill, after five years, without C8-HSL obvious calcification for up to two years",has not been calcified
same,"Methanobactium, Methanosaeta and Methanosarcina in the microbial community","[2]; 50 mg C8-HSL per cubic meter of papermaking wastewater, paper mill, sequencing analysis",enhanced
same,effect on delaying calcification,"[2]; paper mill reactor, compared with before signal molecule addition",obvious
